# Data as given in patent US20250325516A1, “SEROTONIN ANALOGUES FOR USE IN TREATING METALLOPTOSIS-ASSOCIATED DISORDERS” (INSTITUT CURIE, priority 2022, published 2025).
# Entries after “also recorded” stand apart in the source; their conditions may differ. Structures can show the parent of a compound that is named as a salt.
# What was measured:
# [1] = reference in cyclic voltammetry; cited from earlier work
# PDAC cells [2] = assay: Anti-ferroptotic activity: BODIPY-C11 flow cytometry, PDAC cells co-treated with RSL3 (FIG. 8); type: cell-based; conditions: RSL3 200 nM, compounds 10 μM
# Method: (§1) Pancreatic Ductal Adenocarcinoma (PDAC) cells were grown at 37° C. and 5% CO2 using medium prepared based on previously described (https://doi.org/10.1053/j.gastro.2004.03.058).
# PDAC cells were seeded on 6 well plates at the density of 2×10^5 cells/well. RSL3 (200 nM) was added along with compounds (10 μM for screening) on the following day and after 23 hr, BODIPY (4 μM) was added for 1 hr. The media was removed and the cells were washed with PBS twice before typsinization. The cells were harvested, pelleted, washed with PBS and finally PBS buffer containing 10% FBS and EDTA, was added for flow cytometry. The results are shown in FIG. 8 and this enabled us to establish a robust structure activity relationship on the serotonin scaffold.
# PDAC cells [3] = assay: Click-labelling fluorescence microscopy with LysoTracker and organelle antibodies, PDAC cells (FIG. 9); type: cell-based; conditions: 10 μM, 3 h
# Method: Pancreatic Ductal Adenocarcinoma (PDAC) cells were grown at 37° C. and 5% CO2 using medium prepared based on previously described (https://doi.org/10.1053/j.gastro.2004.03.058). Cells were plated on cover slips 24 h prior to the experiment. The cells were treated with 10 µM of compounds for 3 h and LysoTracker Deep Red (ThermoFisher Scientific L12492, 1:10000) according to the manufacturer's protocol. Subsequently, cells were washed three times with 1×PBS and fixed with 2% paraformaldehyde (w/v) in 1×PBS for 12 min, and then washed three times with 1×PBS. After fixation, cells were permeabilized with 0.1% Triton X-100 (v/v) in 1×PBS for 5 min and washed three times with 1×PBS. Then, cells were blocked in 2% BSA, 0.2% Tween-20 (w/v)/1×PBS (blocking buffer) for 20 min at RT. The click reaction cocktail was prepared from Click-iT EdU Imaging Kits (ThermoFisher Scientific, C10337) according to the manufacturer's protocol. Briefly, 868 μL of 1× Click-iT reaction buffer was mixed with 40 μl CuSO4 solution, 2 μL Alexa Fluor azide and 90 μl reaction buffer additive (sodium ascorbate) to reach a final volume of 1 mL. Cover slips were incubated with 50 μl of the click reaction cocktail in the dark at RT for 30 minutes, then washed three times with 1×PBS. Further, cells were incubated with the relevant antibody in blocking buffer for 1 h at room temperature and washed three times with blocking buffer. Then, cells were incubated with secondary antibodies for 1 h. Finally, cover slips were washed three times with 1×PBS and mounted using VECTASHIELD (Vector Laboratories) containing DAPI and were sealed with nail varnish Express manucure (Maybelline, 16P201). Fluorescence images were acquired using a Deltavision real-time microscope (Applied Precision). 100×/1.4NA objectives were used for 2D and 3D acquisitions that were deconvoluted with SoftWorx (Ratio conservative-10 iterations, Applied Precision) and processed with ImageJ.
# BELA cells [4] = assay: RhoNox-M (lysosomal Fe2+ probe) flow cytometry; type: cell-based; conditions: 10 μM, 24 h
# Method: (§2) All cells were grown in an incubator equilibrated at 37° C. with 5% CO2, grown to confluence and split with Trypsin/EDTA (Gibco, TRYPGIB01) once or twice a week according to confluence. HMLER cells ([…]) naturally repressing E-cadherin, obtained from human mammary epithelial cells infected with a retrovirus carrying hTERT, SV40 and the oncogenic allele H-rasV12, and HMLER CD44 and TFRC ko clones were cultured in DMEM/F12 (Thermo Fisher Scientific, 31331093) supplemented with 10% FBS (v/v) (Thermo Fisher Scientific, 10270106), 10 μg/mL insulin (Sigma-Aldrich, 10516), 0.5 μg/mL hydrocortisone (Sigma-Aldrich, H0888) and 0.5 μg/ml puromycin (Life Technologies, A11138-02), unless stated otherwise. PDAC053 T cells were grown in serum-free ductal medium: DMEM/F12 supplemented with 0.61 g/500 mL nicotinamide (Sigma-Aldrich, 3376), 2.50 g/500 mL glucose (Sigma-Aldrich, G6152), 1:200 ITS+ (Corning, 354352), 1:20 Nu-serum IV (Corning, 355104), 100 ng/ml cholera toxin, 1 μM dexamethasone (Sigma-Aldrich, D4902), 50 nM 3,3′,5-triiodo-L-thyronine (Sigma-Aldrich, T6397) and 1× PenStrep. BELA cells were cultured using published procedures (Nat. Comm. doi: 10.1038/ncomms14750).
# (§3) Bodipy-C11 (Thermo Fisher Scientific, D3861) were used according to the manufacturer's protocol. RhoNox-M (in-house) was added to live cells prior to flow cytometry analysis for 1 h at a concentration of 1 μM. For the Annexin/PI assay (Thermo Fisher Scientific, V13245, manufacturer's protocol) BELA cells were treated with RSL3 in the presence or absence of 1 μM Liproxstatin-1 (Sigma-Aldrich, SML1414) or 10 μM A3 for 24 h. Cells were then washed twice with ice-cold 1×PBS and suspended in incubation buffer prior to being analyzed by flow cytometry. The manufacturer's protocol was followed. For each condition, at least 10,000 cells were counted. Data were recorded on an Attune (Thermo Fisher Scientific) and processed using FlowJo (FLOWJO, LLC).
# [5] = Colorimetric assessment of metal complex formation in aqueous solution; type: binding; conditions: for colour of solution in the presence of FeCl3 and CuSO4, indicative of complex formation: aqueous solution, 3 equiv. compound, C=0.1 M; for complex formation with Fe(II), Fe(III) and Cu(II): colorimetric complexation studies in solution (FIG. 1) and NMR spectroscopy (FIG. 2)
# Method: […] assessment of complex formation: To an aqueous solution of serotonin hydrochloride (3 equiv., C=0.1 M) or A3 formic salt (3 equiv., C=0.1 M) iron (III) chloride (1 equiv.) or copper (II) sulfate (C=0.1 M) was added. A color change characterized the formation of metal complexes.
# HMLER cells [6] = assay: Click-chemistry fluorescence microscopy with LysoTracker co-staining, HMLER cells; type: cell-based, human; conditions: 1 μM, 3 h, LysoTracker 45 mins, Alexa-488-N3 click
# Method: as §2
# Fluorescence microscopy of clickable serotonin analog A3: Cells were plated on cover slips 24 h prior to the experiment. […]
# HMLER cells [7] = assay: ICP-MS of total cellular iron and copper; type: cell-based, human; conditions: 100 nM, 3 h or 24 h
# Method: All cells were grown in an incubator equilibrated at 37° C. with 5% CO2, grown to confluence and split with Trypsin/EDTA (Gibco, TRYPGIB01) once or twice a week according to confluence. HMLER cells ([…]) naturally repressing E-cadherin, obtained from human mammary epithelial cells infected with a retrovirus carrying hTERT, SV40 and the oncogenic allele H-rasV12, and HMLER CD44 and TFRC ko clones were cultured in DMEM/F12 (Thermo Fisher Scientific, 31331093) supplemented with 10% FBS (v/v) (Thermo Fisher Scientific, 10270106), 10 μg/mL insulin (Sigma-Aldrich, 10516), 0.5 μg/mL hydrocortisone (Sigma-Aldrich, H0888) and 0.5 μg/ml puromycin (Life Technologies, A11138-02), unless stated otherwise. […]
# Glass vials equipped with Teflon septa were cleaned with nitric acid 65% (w/v) (VWR, Suprapur, 1.00441.0250), washed with ultrapure water (Sigma-Aldrich, 1012620500) and dried. […] Cells were then counted using an automated cell counter (Entek) and transferred in 100 μL 1×PBS to the cleaned glass vials, and samples were lyophilized using a freeze dryer (CHRIST, 22080). […] 56Fe concentrations were measured using an Agilent 7900 ICP-QMS in low-resolution mode. […] Isotopes were measured using a collision-reaction interface with helium gas (5 mL/min) to remove polyatomic interferences. […]
# [8] = tested on: Cells treated with a ferroptosis inducer; assay: BODIPY-C11 lipid peroxidation, cells treated with a ferroptosis inducer (FIG. 6a); type: cell-based; conditions: co-treatment with ferroptosis inducer
# Method: as §3
# [9] = tested on: Cells treated with a ferroptosis inducer; assay: CellTiter-Blue cell viability with a ferroptosis inducer (FIG. 6b); type: cell-based; conditions: co-treatment with ferroptosis inducer
# Method: Cell viability was evaluated by plating 4,000 cells/well in 96-well plates using CellTiter-Blue viability assay according to the manufacturer's protocol. CellTiter-Blue reagent (Promega, G8081) was added after 72 h treatment and cells were incubated for 2 h before recording fluorescence intensities (Eex. 560 nm; Eem. 590 nm) using a Perkin Elmer Wallac 1420 Victor2 Microplate Reader.
# BELA cells [10] = assay: Annexin/PI flow cytometry, RSL3-treated BELA cells (FIG. 7); type: cell-based; conditions: various concentrations of RSL3, 10 μM A3, 24 h
# Method: as §3
# PDAC cells [11] = assay: Cell apoptosis assay with Annexin V and propidium iodide, RSL3-treated PDAC cells (FIG. 10a); type: cell-based; conditions: RSL3 0.1, 0.5, 2, 10 μM, compounds 10 μM, 24 h
# Method: as §1
# PDAC cells were seeded on 6 well plates at the density of 2×10^5 cells/well. RSL3 (0.1, 0.5, 2, 10 µM) was added along with compounds (10 μM) on the following day and after 24 h, the media was recovered and the cells were typsinated. The cells were harvested, pelleted along with the media recovered, washed with PBS, and 100 μl of 1× annexin binding buffer containing annexin V and PI (according to the manufacturer's protocol Dead Cell Apoptosis Kits with Annexin V for Flow Cytometry (Invitrogen)). Finally, PBS buffer containing 10% FBS and 1 mM of EDTA, was added for flow cytometry.
# [12] = Cyclic voltammetry of FeCl3 after addition of compounds (FIG. 10b); type: binding; conditions: 1 mM FeCl3 in 0.3 M nBu4NBF4 in MeCN, scan rate 2 V/s
# Method: Cyclic voltammetry experiments were performed with a three-electrode cell under argon. Saturated Calomel Electrode (SCE) was used as reference, a steady Glassy Carbon (GC) electrode of diameter 3 mm was selected as working electrode and a Platinum wire as counter-electrode. All cyclic voltammograms were recorded at RT with a μ-autolab III from Metrohm using Nova software with a scan rate of 2 V/s. MeCN was used as a degassed HPLC grade from Carlo Erba. Water was mQ H2O. Stock solution of FeCl3 (100 mM) and Lip-1, A3, A0 and DFO (20 mM) were prepared with 0.3 M nBu4NBF4 in MeCN. 1 mM FeCl3 in 0.3 M nBu4NBF4 in MeCN (1 mL) was used as working solution for recording and subsequently equivalents of compounds were added, stirred and recorded.
compound,measurement,setting,value
CC(=O)N(O)CCCCCNC(=O)CCC(=O)N(O)CCCCCNC(=O)CCC(=O)N(O)CCCCCN [DFO],"Fe^3+ chelation, known property of the reference",[1],known Fe^3+ chelator
C#CCOc1ccc2[nH]cc(CCN(CC#C)CC#C)c2c1 [Compound A1],anti-ferroptotic activity (active / inactive compound),PDAC cells [2],Active
same,localization in lysosomes,PDAC cells [3],localized in lysosomes
Oc1ccc2[nH]cc(CCNC3CCCCC3)c2c1 [LC336],RhoNox-M fluorescence (lysosomal Fe(II)),BELA cells [4],increase of RhoNox-M fluorescence
C#CCNCCc1c[nH]c2ccc(O)cc12 [Compound A3],"colour of solution in the presence of FeCl3 and CuSO4, indicative of complex formation",[5],form differently colored solutions
same,"complex formation with Fe(II), Fe(III) and Cu(II)",[5],form readily complexes
same,localization in lysosomes,HMLER cells [6],found to localize in lysosomes; also recorded: accumulate in lysosomes
same,RhoNox-M fluorescence (lysosomal Fe(II)),BELA cells [4],increase of RhoNox-M fluorescence
same,total intracellular copper (ICP-MS),HMLER cells [7],increase
same,total intracellular iron (ICP-MS),HMLER cells [7],increase
same,lipid peroxidation (BODIPY-C11 fluorescence) induced by a ferroptosis inducer,[8],reduces lipid peroxidation; also recorded: reduction of lipid peroxidation
same,cell viability / cell death caused by a ferroptosis inducer,[9],rescues cell death; also recorded: rescue of cell viability
same,cell death induced by the ferroptosis inducer RSL3 (Annexin/propidium iodide),BELA cells [10],protects against RSL3-induced ferroptosis; also recorded: rescued cell death
same,localization in lysosomes,PDAC cells [3],found to localize in lysosomes; also recorded: goes to lysosomes
same,colocalization with other cell organelles,PDAC cells [3]; organelle antibodies,not on other cell organelles; also recorded: doesn't colocalize with other cell organelles
same,protection against RSL3-induced ferroptosis (Annexin/propidium iodide),PDAC cells [11],protects against RSL3-induced ferroptosis
same,binding / chelation of Fe^3+ (cyclic voltammetry),[12],chelates/binds to Fe^3+
CCCCCCCCCCNCCc1c[nH]c2ccc(O)cc12 [LT262A],RhoNox-M fluorescence (lysosomal Fe(II)),BELA cells [4],increase of RhoNox-M fluorescence
CCCCNCCc1c[nH]c2ccc(O)cc12 [LT265B],RhoNox-M fluorescence (lysosomal Fe(II)),BELA cells [4],increase of RhoNox-M fluorescence
C#CCN(CC#C)CCc1c[nH]c2ccc(O)cc12 [Compound A4],anti-ferroptotic activity (active / inactive compound),PDAC cells [2],Active
same,localization in lysosomes,PDAC cells [3],localized in lysosomes
C#CCOc1ccc2c(c1)c(CCN(CC#C)CC#C)cn2CC#C [Compound A0],anti-ferroptotic activity (active / inactive compound),PDAC cells [2],inactive
same,localization in lysosomes,PDAC cells [3],doesn't go to lysosomes
same,binding / chelation of Fe^3+ (cyclic voltammetry),[12],doesn't binds to Fe^3+
"NCCc1c[nH]c2ccc(O)cc12 [Serotonin, serotonin hydrochloride]","colour of solution in the presence of FeCl3 and CuSO4, indicative of complex formation",[5],form differently colored solutions
same,"complex formation with Fe(II), Fe(III) and Cu(II)",[5],form readily complexes
CC(CCCCCCC(C)NCCc1c[nH]c2ccc(O)cc12)NCCc1c[nH]c2ccc(O)cc12 (stereo not drawn) [LC357],RhoNox-M fluorescence (lysosomal Fe(II)),BELA cells [4],increase of RhoNox-M fluorescence
